Laboratory results: patent publication US20260055108A1, “TRIAZINE COMPOUNDS AND USES THEREOF” (HUTCHMED LIMITED, priority 2022, published 2026)
Read-outs that look alike come from different tables or passages of the source.

Experiments:
[1] = molecular target: Recombinant human Menin protein (2-610) / MLL polypeptide binding (Homo sapiens (Human), UniProt O00255); experiment: Menin and MLL protein binding at a molecular level (fluorescence polarization method); settings: inhibition of Menin / MLL polypeptide binding
Sequence of Recombinant human Menin protein (2-610) / MLL polypeptide binding (O00255 2-610): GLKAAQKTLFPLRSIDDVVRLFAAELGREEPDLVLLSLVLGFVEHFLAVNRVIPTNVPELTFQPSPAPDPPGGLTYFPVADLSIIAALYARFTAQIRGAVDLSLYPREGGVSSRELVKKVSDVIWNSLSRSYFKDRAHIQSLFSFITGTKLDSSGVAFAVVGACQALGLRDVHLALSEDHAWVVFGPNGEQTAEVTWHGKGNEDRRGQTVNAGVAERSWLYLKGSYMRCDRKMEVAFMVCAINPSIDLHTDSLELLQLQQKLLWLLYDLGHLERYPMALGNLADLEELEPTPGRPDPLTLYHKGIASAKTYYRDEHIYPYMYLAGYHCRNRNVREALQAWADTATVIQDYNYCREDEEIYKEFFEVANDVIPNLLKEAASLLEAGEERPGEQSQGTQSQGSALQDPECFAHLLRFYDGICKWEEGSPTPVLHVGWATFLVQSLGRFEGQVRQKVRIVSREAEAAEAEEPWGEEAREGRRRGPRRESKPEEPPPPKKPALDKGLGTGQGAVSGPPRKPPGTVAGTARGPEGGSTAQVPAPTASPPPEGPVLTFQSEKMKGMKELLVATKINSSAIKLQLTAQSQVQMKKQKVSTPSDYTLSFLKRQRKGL
Summary of the method: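 Binding of recombinant human Menin (2-610) to 6-FAM-labelled MLL peptide measured by fluorescence polarization (ex 480/em 535 nm) in Tris/NaCl/TCEP buffer, pH 7.5, 2% DMSO. Compound preincubated with Menin 30 min at room temperature, then peptide added for 30 min in the dark. Tested at 1.000 down to 0.0005 μM final.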

[2] = test system: MV-4-11 cells (human acute myelogenous leukemia cell line carrying MLL-AF4 mutation); experiment: Cell proliferation assay, MV-4-11 (CellTiter-Glo); assay type: cell-based
Summary of the method: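 MV-4-11 cells (3000/well, IMDM with 10% HIFBS and 50 μM β-mercaptoethanol) exposed to compound at 1.100–0.001 μM final, 0.1% DMSO, for 3 days at 37°C. Viability read by CellTiter-Glo luminescence on day 0 and day 3, normalised to day-0 and untreated wells.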

[3] = Homo sapiens, MV4-11, 72 h, MV-4-11 cells, 3 days treatment, CellTiter-Glo, read-out: GI50

## CCN(C(=O)c1cc(F)ccc1Oc1nncnc1N1CC2(CCN(C(C)C3CCN(c4cc(OC)c(OC)nn4)CC3)CC2)C1)C(C)C (centres unmarked) [Compound 171, 2-((5-(7-(1-(1-(5,6-dimethoxypyridazin-3-yl)piperidin-4-yl)ethyl)-2,7-diazaspiro[3.5]nonan-2-yl)-1,2,4-triazin-6-yl)oxy)-N-ethyl-5-fluoro-N-isopropylbenzamide]
[1]
  IC50: 41.3 nM
[2]; [3]
  GI50: 56 nM

## CCN(C(=O)c1cc(F)ccc1Oc1nncnc1N1CC2(CCN(C(=O)C3CCN(c4ccccn4)CC3)CC2)C1)C(C)C [Compound 172, N-ethyl-5-fluoro-N-isopropyl-2-((5-(7-(1-(pyridin-2-yl)piperidine-4-carbonyl)-2,7-diazaspiro[3.5]nonan-2-yl)-1,2,4-triazin-6-yl)oxy)benzamide]
[1]
  IC50: > 200 nM
[2]; [3]
  GI50: 76 nM

## CCN(C(=O)c1cc(F)ccc1Oc1nncnc1N1CC2(CCC(CN3CCN(c4ccccn4)CC3)CC2)C1)C(C)C [Compound 173, N-ethyl-5-fluoro-N-isopropyl-2-((5-(7-((4-(pyridin-2-yl)piperazin-1-yl)methyl)-2-azaspiro[3.5]nonan-2-yl)-1,2,4-triazin-6-yl)oxy)benzamide]
[1]
  IC50: 750 nM
[2]; Homo sapiens, MV4-11, 72 h
  GI50: 292 nM

## [2H]C(c1ccc2[nH]c(C#N)cc2c1C)N1CCC2(CC1)CN(c1ncnnc1Oc1ccc(F)cc1C(=O)N(CC)C(C)C)C2 (centres unmarked) [Compound 175, 2-((5-(7-((2-cyano-4-methyl-1H-indol-5-yl)methyl-d)-2,7-diazaspiro[3.5]nonan-2-yl)-1,2,4-triazin-6-yl)oxy)-N-ethyl-5-fluoro-N-isopropylbenzamide]
[1]
  IC50: 1.5 nM
[2]; [3]
  GI50: 4 nM

## [2H]C(c1ccc2oc(C#N)cc2c1)N1CCC2(CC1)CN(c1ncnnc1Oc1ccc(F)cc1C(=O)N(CC)C(C)C)C2 (centres unmarked) [Compound 176]
[1]
  IC50: 6.1 nM
[2]; [3]
  GI50: 26 nM

## COc1cc(N2CCC(CN3CCC4(CC3)CN(c3ncnnc3Oc3ccc(F)cc3C(=O)NC(C)C)C4)CC2)nnc1OC [Compound 177, 2-((5-(7-((1-(5,6-dimethoxypyridazin-3-yl)piperidin-4-yl)methyl)-2,7-diazaspiro[3.5]nonan-2-yl)-1,2,4-triazin-6-yl)oxy)-5-fluoro-N-isopropylbenzamide]
[1]
  IC50: 47.3 nM
[2]; Homo sapiens, MV4-11, 72 h
  GI50: 92 nM

## CCNC(=O)c1cc(F)ccc1Oc1nncnc1N1CC2(CCN(CC3CCN(c4cc(OC)c(OC)nn4)CC3)CC2)C1 [Compound 178, 2-((5-(7-((1-(5,6-dimethoxypyridazin-3-yl)piperidin-4-yl)methyl)-2,7-diazaspiro[3.5]nonan-2-yl)-1,2,4-triazin-6-yl)oxy)-N-ethyl-5-fluorobenzamide]
[1]
  IC50: 124 nM
[2]; [3]
  GI50: 126 nM

## CCNC(=O)c1cc(F)ccc1Oc1nncnc1N1CC2(CCN(CC3CCN(c4cc(OC)c(OC)nn4)CC3)CC2)C1 [Compound 179, (Z)-2-((5-(7-((1-(5,6-dimethoxypyridazin-3-yl)piperidin-4-yl)methyl)-2,7-diazaspiro[3.5]nonan-2-yl)-1,2,4-triazin-6-yl)oxy)-N-ethyl-5-fluorobenzimidic acid]
[1]
  IC50: 560 nM
[2]; MV-4-11 cells, 3 days treatment, CellTiter-Glo, read-out: GI50
  GI50: 155 nM

## C=CC(=O)Nc1ccc(N2CC3(CCC(CN4CCC5(CC4)CN(c4ncnnc4Oc4ccc(F)cc4C(=O)N(CC)C(C)C)C5)CC3)C2)cc1 [Compound 180]
[1]
  IC50: 3.9 nM
[2]; [3]
  GI50: 10 nM

## C=CC(=O)Nc1cccc(N2CC3(CCC(CN4CCC5(CC4)CN(c4ncnnc4Oc4ccc(F)cc4C(=O)N(CC)C(C)C)C5)CC3)C2)c1 [Compound 181]
[1]
  IC50: 25.5 nM
[2]; [3]
  GI50: 7 nM

## C=CC(=O)N1CCC(c2ccc(CN3CCC4(CC3)CN(c3ncnnc3Oc3ccc(F)cc3C(=O)N(CC)C(C)C)C4)cc2)CC1 [Compound 182]
[1]
  IC50: > 1000 nM
[2]; [3]
  GI50: 430 nM

## C=CC(=O)Nc1cccc(N2CCC(CN3CCC4(CC3)CN(c3ncnnc3Oc3ccc(F)cc3C(=O)N(CC)C(C)C)C4)CC2)c1 [Compound 183]
[1]
  IC50: 4 nM
[2]; [3]
  GI50: 2 nM

## COc1cc(N2CCC(CN3CCC4(CC3)CN(c3ncnnc3Oc3ccc(F)cc3C(=O)O)C4)CC2)nnc1OC [Compound 184, 2-((5-(7-((1-(5,6-dimethoxypyridazin-3-yl)piperidin-4-yl)methyl)-2,7-diazaspiro[3.5]nonan-2-yl)-1,2,4-triazin-6-yl)oxy)-5-fluorobenzoic acid]
[1]
  IC50: > 100 nM
[2]; [3]
  GI50: > 1100 nM
